Measurements taken from ChEMBL document CHEMBL1149115, “Unraveling the active conformation of urotensin II” (J Med Chem, 2004).

Assay: Effective concentration of compound in producing vasoconstrictions was determined
Assay type: functional

## CC(C)[C@H](NC(=O)[C@@H]1CSSC[C@@H](NC(=O)[C@@H](N)CC(=O)O)C(=O)N[C@@H](Cc2ccccc2)C(=O)N[C@@H](Cc2c[nH]c3ccccc23)C(=O)N[C@@H](CCCCN)C(=O)N[C@@H](Cc2ccc(O)cc2)C(=O)N1)C(=O)O
  pD2: 8.6

## CC(C)[C@H](NC(=O)[C@@H]1CSSC(C)(C)[C@@H](NC(=O)[C@@H](N)CC(=O)O)C(=O)N[C@@H](Cc2ccccc2)C(=O)N[C@@H](Cc2c[nH]c3ccccc23)C(=O)N[C@@H](CCCCN)C(=O)N[C@@H](Cc2ccc(O)cc2)C(=O)N1)C(=O)O
  pD2: 9.6

## CC(C)[C@H](NC(=O)[C@@H]1NC(=O)[C@H](Cc2ccc(O)cc2)NC(=O)[C@H](CCCCN)NC(=O)[C@H](Cc2c[nH]c3ccccc23)NC(=O)[C@H](Cc2ccccc2)NC(=O)[C@@H](NC(=O)[C@@H](N)CC(=O)O)CSSC1(C)C)C(=O)O
  pD2: 6.7

## CC(C)[C@H](NC(=O)[C@@H]1CSSC[C@@H](NC(=O)[C@H](CC(=O)O)NC(=O)[C@H]2CCCN2C(=O)[C@@H](NC(=O)[C@@H](N)CCC(=O)O)[C@@H](C)O)C(=O)N[C@H](Cc2ccccc2)C(=O)N[C@@H](Cc2c[nH]c3ccccc23)C(=O)N[C@H](CCCCN)C(=O)N[C@@H](Cc2ccc(O)cc2)C(=O)N1)C(=O)O
  pD2: 8.3

## CC(C)[C@H](NC(=O)[C@@H]1NC(=O)[C@H](Cc2ccc(O)cc2)NC(=O)[C@H](CCCCN)NC(=O)[C@H](Cc2c[nH]c3ccccc23)NC(=O)[C@H](Cc2ccccc2)NC(=O)[C@H](NC(=O)[C@@H](N)CC(=O)O)C(C)(C)SSC1(C)C)C(=O)O
  pD2: 8.2

## CC(C)[C@H](NC(=O)[C@@H]1CCSSC[C@H](NC(=O)[C@@H](N)CC(=O)O)C(=O)N[C@@H](Cc2ccccc2)C(=O)N[C@@H](Cc2c[nH]c3ccccc23)C(=O)N[C@@H](CCCCN)C(=O)N[C@@H](Cc2ccc(O)cc2)C(=O)N1)C(=O)O
  pD2: < 6.5
